According to paper PMC3169561, “Restoration of IFNγR Subunit Assembly, IFNγ Signaling and Parasite Clearance in Leishmania donovani Infected Macrophages: Role of Membrane Cholesterol” (PLoS Pathogens, 2011):

Biological target: T1, IFNγ receptor subunit 1 (IFNγR1) (Mus musculus, UniProt P15261)
T1 construct: gene Ifngr1; synthetic Wt IFNγR1 peptide, CRAC motif, residues 269 to 280 ([…])
Assay: SPR (BIAcore […], L1 chip) of peptide over immobilized phosphatidylcholine/cholesterol liposomes
Format: binding

CC(C)CCC[C@@H](C)[C@H]1CC[C@H]2[C@@H]3CC=C4C[C@@H](O)CC[C@]4(C)[C@H]3CC[C@]12C [cholesterol]
Kd: 4.27 nM
